The target in one test is 1b (BK) NS5bΔ21 (Hepatitis C virus genotype 1b (isolate BK) (HCV), UniProt P26663). Kind of test: HCV polymerase inhibition assay, genotype 1b. The settings on record: 1b (BK) NS5bΔ21, 33P-GTP incorporation; read-out: 1b polymerase IC50 (range class). The class given is biochemical, HCV genotype 1b (BK). On the procedure: HCV polymerase reactions were carried out using a modified method of Howe et al., Antimicrobial Agents and Chemotherapy 2004 48(12): 4813-4821. Reactions contained a final concentration of, 0.5% DMSO, 50 nM, 1b (BK) NS5bΔ21, 20 mM Tris-HCl pH 7.5, 5 mM MgCl2, 5 mM MnCl2, 3 mM DTT, 0.05% BSA, 0.2 U/μL RNasin, 10 μg/mL Poly(rC) template, GTP (at Km) and 0.05 μCi/μL ^33P-GTP in a total reaction volume of 50 μL. Compounds were tested in a three fold dilution series, for example starting from 50 μM. Reactions were initiated with the addition of GTP and terminated after 1 hour with 50 μL ice cold 0.2 M EDTA. Terminated reactions were transferred to DEAE 96-well filter plates, unincorporated nucleotides washed from the filters and 50 μL scintillation fluid added prior to reading on a scintillation counter. Similarly, a genotype 3a (VRL-69) NS5bΔ21 polymerase enzyme assay was conducted using essentially the same method.
Chain of 1b (BK) NS5bΔ21 (P26663 2420-2989): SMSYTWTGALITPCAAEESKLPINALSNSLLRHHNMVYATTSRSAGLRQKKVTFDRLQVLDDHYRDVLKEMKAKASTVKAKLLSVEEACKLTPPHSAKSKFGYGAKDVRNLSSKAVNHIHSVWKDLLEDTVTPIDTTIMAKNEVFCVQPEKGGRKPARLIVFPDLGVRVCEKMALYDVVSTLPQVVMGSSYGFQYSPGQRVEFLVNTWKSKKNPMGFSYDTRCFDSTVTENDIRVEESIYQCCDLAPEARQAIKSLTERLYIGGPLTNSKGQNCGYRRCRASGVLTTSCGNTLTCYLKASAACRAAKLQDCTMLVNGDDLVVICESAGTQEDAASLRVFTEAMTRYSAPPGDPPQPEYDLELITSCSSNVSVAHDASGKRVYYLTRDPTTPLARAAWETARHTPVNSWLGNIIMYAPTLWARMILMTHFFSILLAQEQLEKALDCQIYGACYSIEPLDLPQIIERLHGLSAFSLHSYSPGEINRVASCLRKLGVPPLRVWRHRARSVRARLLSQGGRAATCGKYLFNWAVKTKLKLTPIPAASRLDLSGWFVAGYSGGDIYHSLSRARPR
The compound concentration that reduced ^33P-GTP incorporation by 50% (IC50) was calculated using non-linear regression.

Test [1] concerns genotype 1b (Con 1) subgenomic replicon cell line. Kind of test: HCV replicon assay, genotype 1b (Renilla luciferase). The class given is cell-based, HCV genotype 1b (Con 1). The settings on record: Hepatitis C virus; genotype 1b replicon, 72 hours, luciferase; read-out: genotype 1b EC50 (range class). Here is the method:
A genotype 1b (Con 1) subgenomic replicon cell line based on Blight et al., Science 2000 290: 1972-1974, modified to express a Renilla luciferase reporter gene was used to assess antiviral activity of test compounds. Cell cultures were maintained in a sub-confluent state in DMEM with glutamine, 10% heat-inactivated foetal bovine serum (FBS) and G418 (Geneticin®).
For assay, cells were seeded at a density of 7000 cells/well into 96 well tissue culture trays in culture media lacking G418. Compounds were tested in a three fold dilution series, for example starting from 50 uM. After 72 hours incubation at 37° C. and 5% CO2, Renilla luciferase activity was quantified via the Promega Renilla Luciferase or Renilla-Glo™ Luciferase Assay Systems (Promega corporation. The same method was employed for replicon assays using subgenomic genotype 1a and 2a replicon cell lines with a seeding cell density of 5000 cells/well for the 2a cell lines.
The compound concentration that reduced luciferase activity by 50% (EC50) was calculated using non-linear regression.
(In general: In antiviral work, replicon cells carry a viral genome segment that copies itself.)

For orientation: IC50 means the concentration needed to halve the response being measured. Usually EC50 stands for the concentration at which the effect is half-maximal.

Consider `CCN(C(C)=O)c1cc2nn(-c3ccc(Br)cc3)c(C(=O)NC)c2cc1C1CC1` [Compound 48, 6-[Acetyl(ethyl)amino]-2-(4-bromophenyl)-5-cyclopropyl-N-methyl-2H-indazole-3-carboxamide], for which the IC50 on 1b (BK) NS5bΔ21 lay in the range of 10000 to 50000 nM. Further, the EC50 in test [1] was in the range of 1000 to 9990 nM.
Turning to `CNC(=O)c1c2cc(C3CC3)c(N(CCCO)S(C)(=O)=O)cc2nn1-c1ccc(C(C)C)cc1` [Compound 50, 5-cyclopropyl-6-[(3-hydroxypropyl)(methylsulfonyl)amino]-N-methyl-2-[4-(propan-2-yl)-phenyl]-2H-indazole-3-carboxamide], the IC50 at 1b (BK) NS5bΔ21 is 1000 to 9990 nM. Moreover, the EC50 in test [1] fell in the range of 1000 to 9990 nM.
Regarding `CNC(=O)c1c2cc(C3CC3)c(N(C3CCN(S(C)(=O)=O)C3)S(C)(=O)=O)cc2nn1-c1ccc(Br)cc1` (centres unmarked) [Compound 52, 2-(4-bromophenyl)-5-cyclopropyl-N-methyl-6-{(methylsulfonyl)[1-(methylsulfonyl)pyrrolidin-3-yl]amino}-2H-indazole-3-carboxamide], the IC50 at 1b (BK) NS5bΔ21 was under 990 nM. Further, the EC50 in test [1] is under 990 nM.
Turning to `CNC(=O)c1c2cc(C3CC3)c(N(CCCO)S(C)(=O)=O)cc2nn1-c1ccc(C2CC2)cc1` [Compound 53, 5-cyclopropyl-2-(4-cyclopropylphenyl)-6-[(3-hydroxypropyl)(methylsulfonyl)amino]-N-methyl-2H-indazole-3-carboxamide], at 1b (BK) NS5bΔ21, the IC50 lay within 1000 to 9990 nM. The concentration for a half-maximal effect (EC50) in test [1] was under 990 nM.
On the same counts, the results for `CNC(=O)c1c2cc(C3CC3)c(N(CCCO)S(C)(=O)=O)cc2nn1-c1ccc(OC)cc1` [Compound 55, 5-cyclopropyl-6-[(3-hydroxypropyl)(methylsulfonyl)amino]-2-(4-methoxyphenyl)-N-methyl-2H-indazole-3-carboxamide] are 1000 to 9990 nM and 1000 to 9990 nM.
Take `CNC(=O)c1c2cc(C3CC3)c(N(CCCF)S(C)(=O)=O)cc2nn1-c1ccc(Cl)cc1` [Compound 57, 2-(4-chlorophenyl)-5-cyclopropyl-6-[3-fluoropropyl(methylsulfonyl)amino]-N-methyl-2H-indazole-3-carboxamide]: at 1b (BK) NS5bΔ21, the IC50 was under 990 nM. Further, the EC50 in test [1] was under 990 nM.
Take `CNC(=O)c1c2cc(C3CC3)c(N(CCCNC(=O)CCC(=O)O)S(C)(=O)=O)cc2nn1-c1ccc(Nc2ccc(F)cc2)cc1` [Compound 58, 4-[(3-{[5-Cyclopropyl-2-{4-[(4-fluorophenyl)amino]phenyl}-3-(methylcarbamoyl)-2H-indazol-6-yl](methylsulfonyl)amino}propyl)amino]-4-oxobutanoic acid]: the IC50 at 1b (BK) NS5bΔ21 is under 990 nM. The EC50 in test [1] lay in the range of 10000 to 50000 nM.
On the same counts, the results for `CNC(=O)c1c2cc(C3CC3)c(N(CCCNC(C)=O)S(C)(=O)=O)cc2nn1-c1ccc(NCC(C)C)cc1` [Compound 60, 6-{[3-(acetylamino)propyl](methylsulfonyl)amino}-5-cyclopropyl-N-methyl-2-(4-[(2-methylpropyl)amino]phenyl)-2H-indazole-3-carboxamide] are 1000 to 9990 nM and 1000 to 9990 nM.
On the same counts, the results for `CNC(=O)c1c2cc(C3CC3)c(N(CCCNC(=O)CCN)S(C)(=O)=O)cc2nn1-c1ccc(Br)cc1` [Compound 61, 6-{[3-(β-Alanylamino)propyl](methylsulfonyl)amino}-2-(4-bromophenyl)-5-cyclopropyl-N-methyl-2H-indazole-3-carboxamide] are under 990 nM and 1000 to 9990 nM.
Regarding `CNC(=O)c1c2cc(C3CC3)c(N(CCCNC(=O)[C@H]3CCC[C@H]3C(=O)O)S(C)(=O)=O)cc2nn1-c1ccc(Br)cc1` [Compound 63, (1R,2S)-2-[(3-{[2-(4-Bromophenyl)-5-cyclopropyl-3-(methylcarbamoyl)-2H-indazol-6-yl](methylsulfonyl)amino}propyl)carbamoyl]cyclopentanecarboxylic acid], on 1b (BK) NS5bΔ21, the half-maximal inhibitory concentration (IC50) is under 990 nM. The EC50 in test [1] was under 990 nM.

For the origin of these results see patent US8546389B2 (priority 2010, dated 2013).
